Data on four compounds can be found in patent publication US20240210412A1, “SULFONYL-TRIAZOLE COMPOUNDS USEFUL AS LIGANDS AND INHIBITORS OF PROSTAGLANDIN REDUCTASE 2” (University of Virginia Patent Foundation, priority 2021, published 2024).

Holding throughout (assay): SILAC LC-MS ABPP
Holding throughout (assay type): cell-based
Common to all, as to settings: 25 μM 2 h, live DM93 cells

Assay [1] has as its target T1, Q92889 (Homo sapiens, UniProt Q92889).
T1 construct: endogenous in cells; host or cells: DM93 cells (SILAC), live-cell treatment
The gist of the method:
(§1)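 Readout is SILAC heavy/light LC-MS/MS quantification of HHS-475-labelled tyrosine peptides, reflecting blockade of probe labelling by ligand. DM93 cells were pretreated with 25 μM SuTEx ligand (heavy) or DMSO (light) for 2 h at 37 °C, then probed with 100 μM HHS-475 for 2 h.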

For assay [2], the target named is T2, Q9NZQ3 (Homo sapiens, UniProt Q9NZQ3).
T2 construct: endogenous in cells; host or cells: DM93 cells (SILAC)
The gist of the method: as §1

In assay [3] the target is T3, P61978 (Homo sapiens, UniProt P61978).
T3 construct: performing SuTEx compound screening directly in cells; endogenous in cells; host or cells: DM93 cells (SILAC)
An outline of the steps: as §1

Assay [4] has as its target T4, Q04323 (Homo sapiens, UniProt Q04323).
T4 construct: performing SuTEx compound screening directly in cells; endogenous in cells; host or cells: DM93 cells (SILAC)
An outline of the steps:
as §1

For assay [5], the target named is T5, P61326 (Homo sapiens, UniProt P61326).
T5 construct: performing SuTEx compound screening directly in cells; endogenous in cells; host or cells: DM93 cells (SILAC)
An outline of the steps:
as §1

The target of assay [6] is T6, O43390 (Homo sapiens, UniProt O43390).
T6 construct: endogenous in cells; host or cells: DM93
The gist of the method:
as §1

The target of assay [7] is T7, Q14566 (Homo sapiens, UniProt Q14566).
T7 construct: performing SuTEx compound screening directly in cells; endogenous in cells; host or cells: DM93 cells (SILAC), soluble fraction
An outline of the steps: as §1

Assay [8] addresses T8, P22059 (Homo sapiens, UniProt P22059).
T8 construct: endogenous in cells; host or cells: DM93 (SILAC)
An outline of the steps:
as §1

In assay [9] the target is T9, Q14847 (Homo sapiens, UniProt Q14847).
T9 construct: performing SuTEx compound screening directly in cells; endogenous in cells; host or cells: DM93 cells (SILAC), soluble fraction
An outline of the steps: as §1

For assay [10], the target named is T10, Q8NBF2 (Homo sapiens, UniProt Q8NBF2).
T10 construct: endogenous in cells; host or cells: DM93 cells (SILAC), live-cell treatment
An outline of the steps: as §1

Assay [11] has as its target T11, P51784 (Homo sapiens, UniProt P51784).
T11 construct: endogenous in cells; host or cells: DM93 cells (SILAC)
An outline of the steps: as §1

For assay [12], the target named is T12, Q969T9 (Homo sapiens, UniProt Q969T9).
T12 construct: endogenous in cells; host or cells: DM93 cells (SILAC), live-cell treatment
The gist of the method:
as §1

T11 sequence (P51784 whole entry): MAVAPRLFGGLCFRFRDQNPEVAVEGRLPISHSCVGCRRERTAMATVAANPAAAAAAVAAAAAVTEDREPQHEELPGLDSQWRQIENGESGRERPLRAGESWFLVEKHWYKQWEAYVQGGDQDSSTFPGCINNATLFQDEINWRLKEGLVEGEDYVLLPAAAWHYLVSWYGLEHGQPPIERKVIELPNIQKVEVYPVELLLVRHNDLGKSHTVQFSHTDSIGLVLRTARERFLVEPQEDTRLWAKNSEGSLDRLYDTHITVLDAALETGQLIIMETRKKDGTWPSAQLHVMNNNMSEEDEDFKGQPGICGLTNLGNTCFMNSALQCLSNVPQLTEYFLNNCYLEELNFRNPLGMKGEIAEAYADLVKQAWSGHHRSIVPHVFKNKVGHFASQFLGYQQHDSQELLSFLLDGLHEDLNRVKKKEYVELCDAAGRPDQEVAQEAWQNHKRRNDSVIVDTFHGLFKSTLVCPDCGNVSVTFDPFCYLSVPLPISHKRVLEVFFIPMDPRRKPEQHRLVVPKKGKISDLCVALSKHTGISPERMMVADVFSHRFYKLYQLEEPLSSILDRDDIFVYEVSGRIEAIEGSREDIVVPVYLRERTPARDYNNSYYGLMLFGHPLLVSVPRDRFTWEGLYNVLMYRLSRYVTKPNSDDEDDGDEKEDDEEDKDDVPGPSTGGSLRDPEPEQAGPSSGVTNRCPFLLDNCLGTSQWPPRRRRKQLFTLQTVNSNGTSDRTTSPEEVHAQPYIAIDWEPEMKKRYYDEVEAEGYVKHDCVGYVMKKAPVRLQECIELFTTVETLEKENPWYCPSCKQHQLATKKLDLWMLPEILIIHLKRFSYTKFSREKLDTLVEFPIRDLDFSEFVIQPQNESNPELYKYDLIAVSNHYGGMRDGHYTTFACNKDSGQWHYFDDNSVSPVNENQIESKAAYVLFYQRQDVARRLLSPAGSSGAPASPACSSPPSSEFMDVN
T4 sequence (Q04323 whole entry): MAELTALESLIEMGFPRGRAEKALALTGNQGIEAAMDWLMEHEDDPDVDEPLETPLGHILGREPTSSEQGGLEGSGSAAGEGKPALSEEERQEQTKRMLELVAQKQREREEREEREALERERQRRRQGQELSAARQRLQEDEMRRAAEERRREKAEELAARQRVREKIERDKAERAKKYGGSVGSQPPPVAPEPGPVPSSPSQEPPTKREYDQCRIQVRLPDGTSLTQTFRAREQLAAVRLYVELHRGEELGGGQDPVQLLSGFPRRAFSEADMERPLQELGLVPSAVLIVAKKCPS
T7 sequence (Q14566 whole entry): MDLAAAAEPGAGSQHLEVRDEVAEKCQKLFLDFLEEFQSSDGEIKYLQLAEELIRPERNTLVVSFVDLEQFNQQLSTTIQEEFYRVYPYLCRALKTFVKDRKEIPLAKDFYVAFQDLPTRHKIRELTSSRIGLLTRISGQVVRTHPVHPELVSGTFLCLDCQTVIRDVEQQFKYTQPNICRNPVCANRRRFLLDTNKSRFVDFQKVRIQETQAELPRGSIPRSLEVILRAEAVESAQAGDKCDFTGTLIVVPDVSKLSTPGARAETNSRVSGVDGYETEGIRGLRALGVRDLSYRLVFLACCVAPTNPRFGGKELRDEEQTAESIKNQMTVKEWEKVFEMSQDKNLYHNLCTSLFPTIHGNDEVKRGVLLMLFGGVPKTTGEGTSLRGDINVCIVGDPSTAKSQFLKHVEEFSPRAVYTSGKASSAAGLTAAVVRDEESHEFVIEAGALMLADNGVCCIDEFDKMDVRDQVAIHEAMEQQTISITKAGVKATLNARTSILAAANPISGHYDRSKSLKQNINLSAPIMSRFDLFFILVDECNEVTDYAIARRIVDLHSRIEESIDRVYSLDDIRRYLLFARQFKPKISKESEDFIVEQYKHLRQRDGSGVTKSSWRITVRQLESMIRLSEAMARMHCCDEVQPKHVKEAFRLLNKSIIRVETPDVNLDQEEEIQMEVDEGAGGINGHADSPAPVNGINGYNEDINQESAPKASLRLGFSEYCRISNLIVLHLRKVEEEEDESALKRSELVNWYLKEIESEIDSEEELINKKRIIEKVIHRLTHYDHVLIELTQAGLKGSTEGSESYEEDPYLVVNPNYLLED
T12 sequence (Q969T9 whole entry): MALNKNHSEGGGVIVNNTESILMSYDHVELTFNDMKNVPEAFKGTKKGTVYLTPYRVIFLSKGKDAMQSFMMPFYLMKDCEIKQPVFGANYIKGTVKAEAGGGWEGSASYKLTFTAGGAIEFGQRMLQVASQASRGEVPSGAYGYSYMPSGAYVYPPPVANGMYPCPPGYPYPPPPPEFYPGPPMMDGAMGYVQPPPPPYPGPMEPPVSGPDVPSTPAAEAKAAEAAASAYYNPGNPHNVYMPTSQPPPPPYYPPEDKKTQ
T10 sequence (Q8NBF2 whole entry): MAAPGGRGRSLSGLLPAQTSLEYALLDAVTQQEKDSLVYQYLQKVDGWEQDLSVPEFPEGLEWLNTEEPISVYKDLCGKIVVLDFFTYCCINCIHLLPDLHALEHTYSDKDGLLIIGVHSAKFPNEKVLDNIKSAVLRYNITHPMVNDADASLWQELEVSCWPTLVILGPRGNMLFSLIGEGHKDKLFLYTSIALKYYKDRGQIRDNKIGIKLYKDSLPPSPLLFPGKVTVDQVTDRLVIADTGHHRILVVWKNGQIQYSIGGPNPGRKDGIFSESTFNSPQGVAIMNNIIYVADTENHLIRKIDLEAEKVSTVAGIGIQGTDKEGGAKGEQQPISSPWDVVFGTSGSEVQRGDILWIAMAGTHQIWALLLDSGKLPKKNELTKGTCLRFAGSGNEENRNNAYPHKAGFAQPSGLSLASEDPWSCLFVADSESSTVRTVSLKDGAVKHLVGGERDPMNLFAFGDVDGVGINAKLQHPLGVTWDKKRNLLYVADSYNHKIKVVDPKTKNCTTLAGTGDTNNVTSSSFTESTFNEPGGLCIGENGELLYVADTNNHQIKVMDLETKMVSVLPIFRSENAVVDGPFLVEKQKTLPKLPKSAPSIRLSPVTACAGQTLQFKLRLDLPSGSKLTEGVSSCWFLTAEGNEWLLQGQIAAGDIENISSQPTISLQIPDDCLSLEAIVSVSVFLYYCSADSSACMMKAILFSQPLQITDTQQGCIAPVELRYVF
T9 sequence (Q14847 whole entry): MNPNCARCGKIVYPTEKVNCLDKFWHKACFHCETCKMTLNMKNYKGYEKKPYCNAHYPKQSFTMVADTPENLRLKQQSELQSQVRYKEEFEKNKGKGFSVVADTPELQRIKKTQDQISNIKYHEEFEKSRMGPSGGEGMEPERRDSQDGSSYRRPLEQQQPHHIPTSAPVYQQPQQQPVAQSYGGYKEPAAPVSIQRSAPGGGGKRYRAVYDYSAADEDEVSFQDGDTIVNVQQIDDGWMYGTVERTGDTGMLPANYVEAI
T1 sequence (Q92889 whole entry): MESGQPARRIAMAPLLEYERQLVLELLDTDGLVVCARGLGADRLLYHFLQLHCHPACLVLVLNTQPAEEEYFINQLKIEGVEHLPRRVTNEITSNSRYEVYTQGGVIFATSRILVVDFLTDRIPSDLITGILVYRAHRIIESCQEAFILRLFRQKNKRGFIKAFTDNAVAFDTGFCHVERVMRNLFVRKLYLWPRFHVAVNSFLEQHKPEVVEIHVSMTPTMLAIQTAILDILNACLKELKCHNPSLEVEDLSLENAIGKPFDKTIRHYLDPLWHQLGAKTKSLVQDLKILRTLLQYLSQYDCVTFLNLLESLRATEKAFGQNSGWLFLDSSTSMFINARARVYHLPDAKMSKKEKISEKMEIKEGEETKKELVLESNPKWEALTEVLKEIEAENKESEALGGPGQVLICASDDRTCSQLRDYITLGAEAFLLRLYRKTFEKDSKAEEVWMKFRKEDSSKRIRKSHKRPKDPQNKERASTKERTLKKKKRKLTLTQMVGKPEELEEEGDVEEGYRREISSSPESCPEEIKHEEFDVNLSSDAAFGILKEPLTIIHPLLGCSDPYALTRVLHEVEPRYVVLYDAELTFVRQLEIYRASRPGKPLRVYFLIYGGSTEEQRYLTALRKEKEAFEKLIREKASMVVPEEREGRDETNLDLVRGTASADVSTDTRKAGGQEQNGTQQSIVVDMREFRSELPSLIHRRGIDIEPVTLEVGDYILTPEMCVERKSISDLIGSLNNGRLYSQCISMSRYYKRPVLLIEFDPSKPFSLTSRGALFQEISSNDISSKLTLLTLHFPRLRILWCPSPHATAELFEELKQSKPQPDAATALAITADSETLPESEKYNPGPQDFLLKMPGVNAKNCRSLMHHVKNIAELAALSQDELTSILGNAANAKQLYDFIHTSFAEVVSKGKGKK
T5 sequence (P61326 whole entry): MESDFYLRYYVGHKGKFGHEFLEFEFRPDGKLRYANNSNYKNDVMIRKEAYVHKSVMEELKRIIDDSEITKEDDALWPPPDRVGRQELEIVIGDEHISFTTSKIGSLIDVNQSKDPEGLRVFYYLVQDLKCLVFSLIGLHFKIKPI
T6 sequence (O43390 whole entry): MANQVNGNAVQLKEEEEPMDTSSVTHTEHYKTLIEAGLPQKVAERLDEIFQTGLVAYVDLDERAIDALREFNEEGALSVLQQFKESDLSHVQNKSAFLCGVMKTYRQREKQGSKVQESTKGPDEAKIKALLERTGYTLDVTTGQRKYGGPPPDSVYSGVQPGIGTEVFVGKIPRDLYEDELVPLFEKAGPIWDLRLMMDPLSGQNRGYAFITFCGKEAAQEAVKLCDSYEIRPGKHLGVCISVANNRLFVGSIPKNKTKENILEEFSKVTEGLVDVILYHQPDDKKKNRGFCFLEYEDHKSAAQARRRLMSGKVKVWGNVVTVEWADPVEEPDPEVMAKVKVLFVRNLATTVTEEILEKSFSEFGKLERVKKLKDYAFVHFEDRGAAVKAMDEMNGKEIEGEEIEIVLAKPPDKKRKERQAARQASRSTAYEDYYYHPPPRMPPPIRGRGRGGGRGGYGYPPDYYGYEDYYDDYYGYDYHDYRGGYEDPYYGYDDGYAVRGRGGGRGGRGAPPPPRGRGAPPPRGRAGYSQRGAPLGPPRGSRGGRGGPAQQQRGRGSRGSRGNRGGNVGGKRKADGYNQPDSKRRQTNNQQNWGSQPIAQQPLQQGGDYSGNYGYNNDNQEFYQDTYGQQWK

Regarding `O=C(NC1CCCCC1)c1ccc(S(=O)(=O)n2cncn2)cc1` [HHS-0301, 4-((1H-1,2,4-triazol-1-yl)sulfonyl)-N-cyclohexylbenzamide], in assay [1], the “liganded tyrosine site 344” value was “HHS0301.Y|HHS0401.Y (tyrosine sites that showed >80% reductions (SR >5) in probe labeling in cells treated with compounds (liganded sites))”. For the same compound, the “liganded tyrosine site 52” value in assay [2] is listed as “HHS0301.Y (tyrosine sites that showed >80% reductions (SR >5) in probe labeling in cells treated with compounds (liganded sites))”.
For the compound `O=C(c1ccc(S(=O)(=O)n2cncn2)cc1)N1CCC(c2ccccc2)CC1` [HHS-0701, (4-((1H-1,2,4-triazol-1-yl)sulfonyl)phenyl)(4-phenylpiperidin-1-yl)methanone], the “liganded tyrosine site 138” value in assay [3] is reported as “HHS0701.Y (tyrosine sites that showed >80% reductions (SR >5) in probe labeling in cells treated with compounds (liganded sites))”. Besides, the “liganded tyrosine site 179” value in [4] was “HHS0701.Y (tyrosine sites that showed >80% reductions (SR >5) in probe labeling in cells treated with compounds (liganded sites))”.
With `O=C(NCC1CC1)c1ccc(S(=O)(=O)n2cncn2)cc1` [HHS-0201, 4-((1H-1,2,4-triazol-1-yl)sulfonyl)-N-(cyclopropylmethyl)benzamide], the “liganded tyrosine site 34” value in assay [5] is given as “HHS0201.Y (tyrosine sites that showed >80% reductions (SR >5) in probe labeling in cells treated with compounds (liganded sites))”. Moreover, the “liganded tyrosine site 578” value in [6] is “HHS0201.Y|HHS0301.Y|HHS0401.Y|HHS0701.Y (tyrosine sites that showed >80% reductions (SR >5) in probe labeling in cells treated with compounds (liganded sites))”. Moreover, the “liganded tyrosine site 783” value in assay [7] is given as “HHS0201.Y (tyrosine sites that showed >80% reductions (SR >5) in probe labeling in cells treated with compounds (liganded sites))”. Besides, the “liganded tyrosine site 764” value in [8] is listed as “HHS0201.Y|HHS0701.Y (tyrosine sites that showed >80% reductions (SR >5) in probe labeling in cells treated with compounds (liganded sites))”.
As for `O=C(NC1CC1)c1ccc(S(=O)(=O)n2cncn2)cc1` [HHS-0101, 4-((1H-1,2,4-triazol-1-yl)sulfonyl)-N-cyclopropylbenzamide], the “liganded tyrosine site 57” value in assay [9] was “HHS0101.Y (tyrosine sites that showed >80% reductions (SR >5) in probe labeling in cells treated with compounds (liganded sites))”. In addition, the “liganded tyrosine site 23” value in [10] was “HHS0101.Y (tyrosine sites that showed >80% reductions (SR >5) in probe labeling in cells treated with compounds (liganded sites))”. Besides, the “liganded tyrosine site 396” value in assay [11] is recorded as “HHS0101.Y (tyrosine sites that showed >80% reductions (SR >5) in probe labeling in cells treated with compounds (liganded sites))”. Also, the “liganded tyrosine site 232” value in assay [12] is given as “HHS0101.Y|HHS0701.Y (tyrosine sites that showed >80% reductions (SR >5) in probe labeling in cells treated with compounds (liganded sites))”.
